Experimental data taken from PubChem BioAssay (NCI).
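Assay format: 96-well plates, 48-hour exposure. At the GI50, growth is halved. TGI: concentration producing complete growth inhibition.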

Tested on: MDA-MB-468 breast
Experiment: inhibition of tumour cell growth, NCI panel, 48 h

Compound | GI50 | TGI
C=C1C(=O)O[C@H]2[C@H]1CC/C(COC(=O)NCc1ccc(Cn3c(=O)sn(-c4ccccc4)c3=O)cc1)=C\CC[C@@]1(C)O[C@@H]21 | 1170 nM | 2850 nM
Cc1cc(C(=O)c2ccccc2)c(C)c2c1[nH]c1ccc(Cl)cc12 | 33.9 nM | 1120 nM
N#CC1C=Cc2c(ccc3ccccc23)N1C(=O)c1ccccc1 (stereo not given) | 43.2 nM | 218 nM
O=C1OCC2=C1C(c1ccccc1)c1cc3c(cc1N2CCO)OCCO3 (stereo not given) | 138 nM | 959 nM
COc1ccc2ccc3oc([N+](=O)[O-])cc3c2c1 | 168 nM | 381 nM
O=c1oc2c(C(F)(F)F)cccc2cc1-c1csc(Nc2ccc(OCCF)cc2)n1 | 40.1 nM | 12400 nM
C[C@@H]1COCCN1c1cc(C2(O)C[C@H]3CC[C@@H](C2)O3)c2cnn(-c3ccn[nH]3)c2n1 (stereo not given in full) | 113 nM | 545 nM
CCCCCCCCCCCCCCCC1=NC(C)(C)CN1C(C)C | 1320 nM | 2660 nM
CC(C)(C)c1ccc(NS(=O)(=O)c2ccc3nc(NC(=O)c4cnccn4)[nH]c3c2)cc1 | 712 nM | 4270 nM
C[C@@H](Nc1nc(Nc2ccc(F)c(Cl)c2)nc2ccccc12)C1CC1 | 1350 nM | 3740 nM
CC1(C)C(=O)/C(=C\c2cccnc2)C[C@]2(C)[C@H]3CC[C@@H]4[C@@H](C(=O)/C=C/c5ccncc5)CC[C@@]4(C)[C@]3(C)CC[C@@H]12 | 1720 nM | 3670 nM
Oc1ccc(N=Nc2ccccn2)c(O)c1 | 681 nM | 4650 nM
CCCCCn1c(C)cc(/C=C\c2ccc3cc(C)ccc3[n+]2C)c1C | 13.3 nM | 52.3 nM
Cc1cc(Nc2cc(N)ncn2)c(=O)n2c1C(=O)NC21CCCCC1 | 94900 nM | > 100000 nM
COc1ccc2nc3cc(Cl)ccc3c(NCCNc3c4ccc(Cl)cc4nc4ccc(OC)cc34)c2c1 | 1800 nM | 3780 nM
O=C(CCCCC(=O)N/N=C\c1ccccc1O)N/N=C\c1ccccc1O | 2630 nM | > 100000 nM
CCN(Cc1c(Cl)cccc1Cl)c1ccc(CO)c(Cl)c1 | – | 33 nM
COc1ccc(Cn2cc3c(c2-c2cc(OC)c(OC)c(OC)c2)CCc2cnoc2-3)cc1 | 171 nM | 622 nM
Nc1c(C(=O)Nc2cccc(Cl)c2Cl)sc2nc3c(cc12)C(=O)CCC3 | 786 nM | > 100000 nM
COc1c(B(O)O)cc(F)cc1-c1nc2ccc3[nH]ncc3c2c2c1CCCC2 | 1510 nM | 4210 nM

Compound | GI50 | TGI
CN(C)CCCn1c(-c2nonc2N)nc2cnccc21 | – | > 25000 nM
Cn1cc(C2=C(N3CCOCC3)C(=O)NC2=O)c2ccccc21 | > 25000 nM | > 25000 nM
O=C(NC(=S)Nc1cc(Cl)ccc1O)c1cccc(Br)c1 | 5250 nM | > 100000 nM
COc1cc(-c2csc(NC(=O)Nc3cc(Cl)cc(Cl)c3)n2)cc(OC)c1OC | 1670 nM | 3820 nM
CC(=O)c1nc2ccccc2n1CC(=O)c1cccc(Cl)c1 | 328 nM | –
Cc1cccc(Cc2cnc(NC(=O)CCc3ccc(C)o3)s2)c1 | 112 nM | 6560 nM
Cc1c(Cl)cccc1NC(=O)c1sc2nc3c(cc2c1N)CCCCC3 | 165 nM | 29600 nM
CC(=O)c1cc(O)c2ccccc2c1O | 17500 nM | 33400 nM
CC[C@H](C)C(=O)O[C@H]1C[C@H](O)C=C2C=C[C@H](C)[C@H](CC[C@@H](O)C[C@@H](O)CC(=O)O)[C@H]21 | > 100000 nM | > 100000 nM
C=CC(COC(c1ccccc1)(c1ccccc1)c1ccccc1)N(CC)CC (stereo not given) | 2430 nM | 6750 nM
Cc1ccc(-c2cc(O)c(-c3ccc(C)cc3C)cc2O)c(C)c1 | 1750 nM | 13500 nM
CNCCN=c1ccc2c3c1c(O)c1c(O)ccc(=O)c1c3[nH]n2CCNCCO | 63.4 nM | 435 nM
CCN(CC)c1ccc(/C=C/C=C2\NC(=O)NC2=O)cc1 | 1820 nM | 7260 nM
CCN(c1cc(C#CCN2CCOCC2)cc(C(=O)NCc2c(C)cc(C)[nH]c2=O)c1C)C1CCC(N(C)CCOC)CC1 (stereo not given) | > 100000 nM | > 100000 nM
Nc1ncc(-c2cccc(S(N)(=O)=O)c2)c2scc(-c3ccc(F)c(Cl)c3)c12 | 5130 nM | 15700 nM
O=c1ccc2nc(-c3ccccn3)nn(-c3ccccc3)c-2c1 | 1440 nM | 3450 nM
CC(=C/c1ccccc1)/C=C1/NC(=S)N(/C=C2\C(=O)Oc3ccccc3C2=O)C1=O | 26900 nM | > 100000 nM
COc1ccc(-c2nn(-c3ccc(NC(=O)Nc4ccc(Cl)c(C(F)(F)F)c4)cc3)cc2-c2ccncc2)cc1Cl | 1180 nM | 3110 nM
CC#Cc1nc(Nc2cc(C)[nH]n2)c2ccccc2n1 | 2470 nM | 6400 nM
